Experimental data: ChEMBL document CHEMBL1201862, “PubChem BioAssay data set” (2004)
The source made the active and inactive calls.

What was measured:
[1] = biological target: Peroxisome proliferator-activated receptor gamma/Nuclear receptor corepressor 2 (Homo sapiens, UniProt P37231+Q9Y618); experiment: Counterscreen for NR2E3 inverse agonists: TR-FRET-based biochemical high throughput dose response assay to identify inverse agonists of the interaction between peroxisome proliferator-activated receptor gamma (PPARg) and nuclear receptor co-repressor 2 (NCOR2).; format: functional
[2] = biological target: Photoreceptor-specific nuclear receptor (Homo sapiens, UniProt Q9Y5X4); experiment: NR2E3 inverse agonists, dose response, biochemical, TR-FRET (AID 463256); format: functional
Photoreceptor-specific nuclear receptor, sequence (Q9Y5X4 whole entry): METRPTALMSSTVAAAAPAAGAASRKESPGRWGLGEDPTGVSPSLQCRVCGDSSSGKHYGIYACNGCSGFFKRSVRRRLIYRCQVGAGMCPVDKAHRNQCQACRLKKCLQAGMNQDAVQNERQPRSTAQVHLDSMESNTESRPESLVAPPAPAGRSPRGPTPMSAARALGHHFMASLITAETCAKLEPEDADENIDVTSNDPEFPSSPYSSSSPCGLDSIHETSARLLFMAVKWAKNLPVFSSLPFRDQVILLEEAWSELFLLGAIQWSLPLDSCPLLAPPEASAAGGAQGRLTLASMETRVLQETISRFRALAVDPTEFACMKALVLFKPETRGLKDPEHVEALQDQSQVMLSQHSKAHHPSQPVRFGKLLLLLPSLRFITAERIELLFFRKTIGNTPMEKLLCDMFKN

[3] = biological target: T1, Small ubiquitin-related modifier 1 (Homo sapiens, UniProt P63165); experiment: inhibitors of SUMO1 peptide binding, dose response, biochemical, fluorescence polarization, uHTS hits (AID 624382); format: functional; details: read-out: IC50_Mean
T1 sequence (P63165 whole entry): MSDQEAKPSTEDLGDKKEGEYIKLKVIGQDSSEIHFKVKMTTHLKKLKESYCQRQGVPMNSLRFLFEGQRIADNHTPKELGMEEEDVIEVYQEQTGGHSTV

[4] = biological target: T1, Small ubiquitin-related modifier 1; experiment: inhibitors of SUMO1 partner interactions, dose response, biochemical, FRET (AID 624383); format: functional; details: read-out: IC50_Mean
[5] = Counterscreen for IDE inhibitors: Luminescence-based cell-based high throughput dose response assay to identify compounds that are cytotoxic to HEK cells. [Related pubchem assays: 434962 (Primary screen (IDE inhibitors in singlicate)), 449730 (Counterscreen (Cytotoxicity in triplicate)), 435028 (Confirmation (IDE inhibitors in triplicate)) …; format: functional; details: HEK293
Insulin-degrading enzyme = biological target: T2, Insulin-degrading enzyme (Homo sapiens, UniProt P14735); experiment: Dose Response: Fluorescence polarization-based cell-based high throughput dose response assay for inhibitors of insulin-degrading enzyme (IDE). [Related pubchem assays: 434962 (Primary screen (IDE inhibitors in singlicate)), 449730 (Counterscreen (Cytotoxicity in triplicate)), 435028 (Confirmation (IDE inhibitors in triplicate)), 434984 (Summary …; format: functional
T2 sequence (P14735 whole entry): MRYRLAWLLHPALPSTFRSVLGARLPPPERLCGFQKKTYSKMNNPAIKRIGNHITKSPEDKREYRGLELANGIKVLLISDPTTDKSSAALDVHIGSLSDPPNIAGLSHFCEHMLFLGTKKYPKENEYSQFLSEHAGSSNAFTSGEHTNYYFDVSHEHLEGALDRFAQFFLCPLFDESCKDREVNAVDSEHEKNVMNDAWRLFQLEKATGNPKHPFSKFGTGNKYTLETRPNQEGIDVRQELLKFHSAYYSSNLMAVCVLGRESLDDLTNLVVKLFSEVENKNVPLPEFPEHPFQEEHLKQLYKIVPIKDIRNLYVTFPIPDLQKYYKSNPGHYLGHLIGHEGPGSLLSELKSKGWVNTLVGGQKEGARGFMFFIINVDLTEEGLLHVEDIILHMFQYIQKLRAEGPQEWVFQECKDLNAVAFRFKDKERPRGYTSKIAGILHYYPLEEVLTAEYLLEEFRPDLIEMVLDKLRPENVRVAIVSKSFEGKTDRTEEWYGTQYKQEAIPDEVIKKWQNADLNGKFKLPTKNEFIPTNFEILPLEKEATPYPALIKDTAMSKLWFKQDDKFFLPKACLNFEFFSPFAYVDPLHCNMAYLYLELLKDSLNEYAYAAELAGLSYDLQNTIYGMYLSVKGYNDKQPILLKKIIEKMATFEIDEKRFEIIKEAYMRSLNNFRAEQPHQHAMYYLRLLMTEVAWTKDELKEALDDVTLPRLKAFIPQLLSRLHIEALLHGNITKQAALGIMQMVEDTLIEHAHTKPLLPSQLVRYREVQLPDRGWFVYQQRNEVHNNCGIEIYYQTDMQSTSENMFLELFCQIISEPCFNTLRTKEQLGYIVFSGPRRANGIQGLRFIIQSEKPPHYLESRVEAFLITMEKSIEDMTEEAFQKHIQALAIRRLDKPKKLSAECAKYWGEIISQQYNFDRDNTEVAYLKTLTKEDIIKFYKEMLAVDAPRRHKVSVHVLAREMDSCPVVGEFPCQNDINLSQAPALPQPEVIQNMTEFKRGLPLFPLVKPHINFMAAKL

[6] = biological target: DNA dC->dU-editing enzyme APOBEC-3A (Homo sapiens, UniProt P31941); experiment: Dose Response confirmation of small molecule APOBEC3A DNA Deaminase Inhibitors via a fluorescence-based single-stranded DNA deaminase assay. [Related pubchem assays (depositor defined):AID493011, AID493024]; format: functional
DNA dC->dU-editing enzyme APOBEC-3A, sequence (P31941 whole entry): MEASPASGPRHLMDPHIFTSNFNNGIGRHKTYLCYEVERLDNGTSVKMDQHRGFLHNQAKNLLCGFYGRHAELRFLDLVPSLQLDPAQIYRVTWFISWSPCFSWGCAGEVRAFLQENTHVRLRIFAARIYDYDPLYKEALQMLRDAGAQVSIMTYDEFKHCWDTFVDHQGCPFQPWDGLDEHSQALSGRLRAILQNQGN

[7] = biological target: DNA dC->dU-editing enzyme APOBEC-3G (Homo sapiens, UniProt Q9HC16); format: functional;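 note: Dose-response counterscreen measuring inhibition of APOBEC3G DNA deaminase activity, run while confirming APOBEC3A inhibitors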
DNA dC->dU-editing enzyme APOBEC-3G, sequence (Q9HC16 whole entry): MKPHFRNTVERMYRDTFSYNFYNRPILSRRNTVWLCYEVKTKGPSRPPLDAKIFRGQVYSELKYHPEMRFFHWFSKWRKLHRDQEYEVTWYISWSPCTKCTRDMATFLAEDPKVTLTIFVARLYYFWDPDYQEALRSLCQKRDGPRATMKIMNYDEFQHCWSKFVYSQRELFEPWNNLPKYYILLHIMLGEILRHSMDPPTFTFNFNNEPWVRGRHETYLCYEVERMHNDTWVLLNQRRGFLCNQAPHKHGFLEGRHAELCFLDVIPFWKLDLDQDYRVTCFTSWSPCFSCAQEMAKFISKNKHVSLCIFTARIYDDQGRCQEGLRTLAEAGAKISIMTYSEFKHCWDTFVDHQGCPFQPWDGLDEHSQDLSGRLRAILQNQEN

[8] = biological target: Peroxisome proliferator-activated receptor gamma/Nuclear receptor coactivator 2 (Homo sapiens, UniProt P37231); format: functional;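 note: agonist potency for raising coactivator recruitment to the receptor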
Peroxisome proliferator-activated receptor gamma/Nuclear receptor coactivator 2, sequence (P37231 whole entry): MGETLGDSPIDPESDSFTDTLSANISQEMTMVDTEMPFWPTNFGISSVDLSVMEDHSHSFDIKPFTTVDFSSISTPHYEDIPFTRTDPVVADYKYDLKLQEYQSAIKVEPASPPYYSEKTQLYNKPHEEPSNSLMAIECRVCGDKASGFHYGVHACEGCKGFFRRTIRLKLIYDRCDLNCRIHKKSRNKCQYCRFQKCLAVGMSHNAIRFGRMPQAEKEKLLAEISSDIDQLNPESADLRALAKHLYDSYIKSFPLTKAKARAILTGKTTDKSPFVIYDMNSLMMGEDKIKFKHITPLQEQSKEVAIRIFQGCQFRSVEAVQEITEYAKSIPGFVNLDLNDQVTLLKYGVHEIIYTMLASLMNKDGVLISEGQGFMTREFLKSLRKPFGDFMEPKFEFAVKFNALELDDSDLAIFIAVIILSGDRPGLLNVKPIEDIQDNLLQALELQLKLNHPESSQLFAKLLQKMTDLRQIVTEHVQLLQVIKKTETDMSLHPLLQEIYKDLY
Peroxisome proliferator-activated receptor gamma/Nuclear receptor coactivator 2, sequence (Q15596 whole entry, further chain): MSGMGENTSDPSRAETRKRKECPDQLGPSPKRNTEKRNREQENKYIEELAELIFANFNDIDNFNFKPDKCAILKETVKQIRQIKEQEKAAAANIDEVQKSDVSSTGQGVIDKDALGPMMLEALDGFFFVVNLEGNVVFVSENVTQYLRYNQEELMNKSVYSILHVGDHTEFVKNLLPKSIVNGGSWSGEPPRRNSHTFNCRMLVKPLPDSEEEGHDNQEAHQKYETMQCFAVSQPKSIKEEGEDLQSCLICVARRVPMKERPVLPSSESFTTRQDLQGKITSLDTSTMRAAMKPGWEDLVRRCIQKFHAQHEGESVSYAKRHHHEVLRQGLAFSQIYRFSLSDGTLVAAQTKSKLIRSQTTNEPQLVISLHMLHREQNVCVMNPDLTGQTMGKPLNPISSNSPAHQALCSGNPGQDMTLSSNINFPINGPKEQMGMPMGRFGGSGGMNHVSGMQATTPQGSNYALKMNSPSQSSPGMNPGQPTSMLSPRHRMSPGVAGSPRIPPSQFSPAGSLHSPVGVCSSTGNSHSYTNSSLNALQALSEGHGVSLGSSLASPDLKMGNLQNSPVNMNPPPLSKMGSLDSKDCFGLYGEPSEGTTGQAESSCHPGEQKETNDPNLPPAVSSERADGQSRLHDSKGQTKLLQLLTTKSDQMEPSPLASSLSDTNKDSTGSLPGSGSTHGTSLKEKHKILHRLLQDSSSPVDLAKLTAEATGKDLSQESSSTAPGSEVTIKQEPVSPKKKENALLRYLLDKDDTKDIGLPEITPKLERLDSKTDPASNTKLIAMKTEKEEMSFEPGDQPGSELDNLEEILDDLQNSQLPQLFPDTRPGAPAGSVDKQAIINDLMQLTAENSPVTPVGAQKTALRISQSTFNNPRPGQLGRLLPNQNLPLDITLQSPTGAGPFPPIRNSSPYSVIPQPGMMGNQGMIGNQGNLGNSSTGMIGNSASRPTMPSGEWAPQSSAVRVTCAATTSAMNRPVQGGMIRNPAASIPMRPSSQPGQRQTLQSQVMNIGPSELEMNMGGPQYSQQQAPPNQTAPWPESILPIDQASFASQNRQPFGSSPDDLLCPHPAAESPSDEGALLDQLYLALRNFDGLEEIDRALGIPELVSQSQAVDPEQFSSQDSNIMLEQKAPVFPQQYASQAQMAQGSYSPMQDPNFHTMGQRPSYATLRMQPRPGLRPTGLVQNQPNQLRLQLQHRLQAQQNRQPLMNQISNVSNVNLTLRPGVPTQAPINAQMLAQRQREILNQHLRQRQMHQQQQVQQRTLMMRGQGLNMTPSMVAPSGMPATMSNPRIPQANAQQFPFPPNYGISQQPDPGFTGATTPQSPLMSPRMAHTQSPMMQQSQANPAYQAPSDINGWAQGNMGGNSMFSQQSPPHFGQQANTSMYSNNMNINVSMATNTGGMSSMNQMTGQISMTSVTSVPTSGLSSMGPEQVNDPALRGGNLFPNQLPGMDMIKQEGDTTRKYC

[9] = biological target: Peroxisome proliferator-activated receptor gamma/Nuclear receptor coactivator 1 (Homo sapiens, UniProt P37231); format: functional;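 note: agonist potency as compounds enhance coactivator SRC-1 recruitment to PPARgamma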
Peroxisome proliferator-activated receptor gamma/Nuclear receptor coactivator 1, sequence (P37231 whole entry): as the sequence (P37231 whole entry) above
Peroxisome proliferator-activated receptor gamma/Nuclear receptor coactivator 1, sequence (Q15788 whole entry, further chain): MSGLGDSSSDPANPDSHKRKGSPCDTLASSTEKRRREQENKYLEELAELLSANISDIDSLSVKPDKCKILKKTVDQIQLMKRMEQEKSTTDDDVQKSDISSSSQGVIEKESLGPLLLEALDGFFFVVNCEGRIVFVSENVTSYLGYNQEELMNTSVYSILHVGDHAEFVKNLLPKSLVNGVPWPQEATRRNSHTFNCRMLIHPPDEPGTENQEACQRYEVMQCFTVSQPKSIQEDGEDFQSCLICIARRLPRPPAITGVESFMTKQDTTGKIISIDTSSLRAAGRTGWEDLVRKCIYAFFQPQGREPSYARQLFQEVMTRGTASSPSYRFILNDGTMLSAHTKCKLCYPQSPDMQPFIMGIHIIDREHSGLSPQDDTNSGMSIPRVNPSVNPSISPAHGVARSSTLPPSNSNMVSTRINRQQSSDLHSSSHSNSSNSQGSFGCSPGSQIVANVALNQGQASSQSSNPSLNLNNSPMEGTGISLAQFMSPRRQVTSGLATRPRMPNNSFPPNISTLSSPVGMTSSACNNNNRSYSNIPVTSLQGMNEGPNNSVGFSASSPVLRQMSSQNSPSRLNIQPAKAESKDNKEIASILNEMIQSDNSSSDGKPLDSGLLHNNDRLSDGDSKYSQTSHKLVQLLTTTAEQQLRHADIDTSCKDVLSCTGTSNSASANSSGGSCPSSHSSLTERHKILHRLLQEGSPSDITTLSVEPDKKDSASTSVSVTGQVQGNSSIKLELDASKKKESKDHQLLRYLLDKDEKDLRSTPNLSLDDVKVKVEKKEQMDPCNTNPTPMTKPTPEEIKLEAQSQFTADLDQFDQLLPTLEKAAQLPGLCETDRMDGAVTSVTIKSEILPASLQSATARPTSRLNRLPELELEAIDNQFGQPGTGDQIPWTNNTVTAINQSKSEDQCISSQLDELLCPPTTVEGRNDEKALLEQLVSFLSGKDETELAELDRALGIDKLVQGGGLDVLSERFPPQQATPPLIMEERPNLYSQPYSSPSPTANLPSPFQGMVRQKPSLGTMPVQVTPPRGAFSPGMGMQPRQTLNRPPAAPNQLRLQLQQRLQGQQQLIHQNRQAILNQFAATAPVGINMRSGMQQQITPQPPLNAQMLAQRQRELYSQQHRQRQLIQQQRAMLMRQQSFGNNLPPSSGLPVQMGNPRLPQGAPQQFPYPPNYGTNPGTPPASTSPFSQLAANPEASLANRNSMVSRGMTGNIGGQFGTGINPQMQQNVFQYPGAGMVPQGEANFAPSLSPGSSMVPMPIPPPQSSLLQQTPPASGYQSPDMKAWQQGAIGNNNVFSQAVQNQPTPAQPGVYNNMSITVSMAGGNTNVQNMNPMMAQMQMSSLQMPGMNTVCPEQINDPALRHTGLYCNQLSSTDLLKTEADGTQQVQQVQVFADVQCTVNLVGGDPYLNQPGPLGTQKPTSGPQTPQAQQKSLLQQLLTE

[10] = biological target: Peroxisome proliferator-activated receptor gamma/Nuclear receptor coactivator 3 (Homo sapiens, UniProt P37231); format: functional;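 note: agonist potency for raising coactivator recruitment to the receptor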
[11] = biological target: T3, Mannose-6-phosphate isomerase (Homo sapiens, UniProt P34949); experiment: inhibitors of human PMI, primary screen, biochemical, fluorescence intensity, coupled assay (AID 1209)
T3 sequence (P34949 whole entry): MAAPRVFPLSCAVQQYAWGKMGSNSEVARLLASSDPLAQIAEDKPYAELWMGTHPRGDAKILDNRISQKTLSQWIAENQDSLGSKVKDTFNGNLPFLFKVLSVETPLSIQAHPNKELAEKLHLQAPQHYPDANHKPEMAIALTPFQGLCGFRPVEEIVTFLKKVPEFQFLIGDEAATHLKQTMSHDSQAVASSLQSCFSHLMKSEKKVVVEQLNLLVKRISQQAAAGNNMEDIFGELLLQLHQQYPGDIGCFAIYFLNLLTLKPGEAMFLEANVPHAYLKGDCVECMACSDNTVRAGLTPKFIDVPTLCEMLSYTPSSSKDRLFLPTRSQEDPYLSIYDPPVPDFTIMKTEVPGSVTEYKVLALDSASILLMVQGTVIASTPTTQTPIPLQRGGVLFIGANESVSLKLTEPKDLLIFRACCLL

[12] = biological target: T3, Mannose-6-phosphate isomerase; experiment: human PMI inhibitors, high substrate, primary screen, biochemical, fluorescence intensity, high mannose 6-phosphate (AID 1220)
[13] = biological target: T4, Replicative DNA helicase DnaB (Mycobacterium tuberculosis, UniProt P9WMR3); experiment: DnaB intein splicing inhibitors, dose response, biochemical, cell-free fluorescence (AID 449749); format: functional
T4 sequence (P9WMR3 whole entry): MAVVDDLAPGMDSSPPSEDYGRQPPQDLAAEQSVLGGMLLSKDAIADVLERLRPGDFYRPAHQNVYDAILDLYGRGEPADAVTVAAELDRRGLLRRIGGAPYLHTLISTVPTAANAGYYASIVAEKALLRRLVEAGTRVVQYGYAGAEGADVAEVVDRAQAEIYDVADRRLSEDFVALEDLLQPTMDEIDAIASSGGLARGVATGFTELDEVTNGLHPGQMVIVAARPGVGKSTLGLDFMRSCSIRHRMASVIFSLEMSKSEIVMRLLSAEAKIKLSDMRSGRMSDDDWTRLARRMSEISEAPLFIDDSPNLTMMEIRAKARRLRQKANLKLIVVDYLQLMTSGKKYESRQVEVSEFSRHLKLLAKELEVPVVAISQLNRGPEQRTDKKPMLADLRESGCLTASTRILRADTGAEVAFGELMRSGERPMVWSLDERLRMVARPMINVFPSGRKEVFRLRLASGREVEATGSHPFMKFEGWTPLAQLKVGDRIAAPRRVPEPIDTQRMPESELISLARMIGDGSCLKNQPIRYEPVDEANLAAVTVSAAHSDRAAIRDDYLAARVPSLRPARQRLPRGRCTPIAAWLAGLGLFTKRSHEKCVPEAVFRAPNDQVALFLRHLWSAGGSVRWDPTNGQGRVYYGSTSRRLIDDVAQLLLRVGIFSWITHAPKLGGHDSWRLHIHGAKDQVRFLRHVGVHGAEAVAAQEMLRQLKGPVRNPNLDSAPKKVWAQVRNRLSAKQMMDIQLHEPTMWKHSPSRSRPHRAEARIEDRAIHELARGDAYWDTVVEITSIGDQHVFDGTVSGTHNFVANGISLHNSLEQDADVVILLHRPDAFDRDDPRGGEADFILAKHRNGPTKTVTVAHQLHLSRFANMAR

Protein RecA = biological target: T5, Protein RecA (Mycobacterium tuberculosis, UniProt P9WHJ3); experiment: Fluorescence Cell-Free Homogeneous Dose Retest to Identify Inhibitors of RecA-Intein Splicing Activity. [Related pubchem assays (depositor defined):AID2097, AID2223, AID489010, AID492950]; format: functional
T5 sequence (P9WHJ3 whole entry): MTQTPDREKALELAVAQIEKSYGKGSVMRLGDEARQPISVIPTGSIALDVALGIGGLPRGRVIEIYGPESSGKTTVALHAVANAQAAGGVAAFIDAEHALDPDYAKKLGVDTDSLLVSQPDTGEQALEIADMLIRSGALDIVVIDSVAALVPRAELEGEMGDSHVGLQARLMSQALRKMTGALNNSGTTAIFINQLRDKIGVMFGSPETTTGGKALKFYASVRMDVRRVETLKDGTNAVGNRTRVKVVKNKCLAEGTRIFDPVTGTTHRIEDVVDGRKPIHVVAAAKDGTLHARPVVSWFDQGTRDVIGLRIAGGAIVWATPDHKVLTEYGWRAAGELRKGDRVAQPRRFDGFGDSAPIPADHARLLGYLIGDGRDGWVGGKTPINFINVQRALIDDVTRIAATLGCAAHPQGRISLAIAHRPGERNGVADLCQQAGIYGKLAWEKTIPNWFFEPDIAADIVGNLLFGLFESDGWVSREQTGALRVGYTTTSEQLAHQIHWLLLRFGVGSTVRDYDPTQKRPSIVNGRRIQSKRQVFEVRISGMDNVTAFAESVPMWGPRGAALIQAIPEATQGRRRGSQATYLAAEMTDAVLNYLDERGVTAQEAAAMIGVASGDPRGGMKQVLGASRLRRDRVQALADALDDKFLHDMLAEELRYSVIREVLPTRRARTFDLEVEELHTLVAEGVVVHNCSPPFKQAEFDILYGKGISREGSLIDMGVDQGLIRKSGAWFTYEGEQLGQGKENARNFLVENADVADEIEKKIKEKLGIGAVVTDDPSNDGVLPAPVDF

Protein skinhead-1 = biological target: T6, Protein skinhead-1 (Caenorhabditis elegans, UniProt P34707); format: functional
T6 sequence (P34707 whole entry): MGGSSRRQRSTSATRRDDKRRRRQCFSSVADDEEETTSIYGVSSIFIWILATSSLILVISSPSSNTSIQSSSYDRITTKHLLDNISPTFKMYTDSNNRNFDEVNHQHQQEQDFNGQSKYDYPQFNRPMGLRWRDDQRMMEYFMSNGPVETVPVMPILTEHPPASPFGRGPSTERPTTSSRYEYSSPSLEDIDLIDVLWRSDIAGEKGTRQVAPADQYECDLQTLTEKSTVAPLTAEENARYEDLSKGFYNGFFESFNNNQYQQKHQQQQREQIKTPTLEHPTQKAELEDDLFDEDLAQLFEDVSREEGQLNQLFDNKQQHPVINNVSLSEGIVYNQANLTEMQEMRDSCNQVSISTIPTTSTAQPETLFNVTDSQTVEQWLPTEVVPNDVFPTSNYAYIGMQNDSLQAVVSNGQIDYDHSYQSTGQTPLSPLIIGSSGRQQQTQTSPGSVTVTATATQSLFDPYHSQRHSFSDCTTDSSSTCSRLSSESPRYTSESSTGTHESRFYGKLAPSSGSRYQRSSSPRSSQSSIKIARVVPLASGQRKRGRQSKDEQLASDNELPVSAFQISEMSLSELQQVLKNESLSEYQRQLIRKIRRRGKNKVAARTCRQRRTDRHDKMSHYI

Cc1ccc(NC(=O)CSc2nc3ccccc3c3nc(CCc4c(C)n[nH]c4C)nn23)cc1F
IC50 [1]: 0.356 µM (active)
IC50 [2]: 0.474 µM (active)
IC50 [3]: > 66.6 µM (inactive)
IC50 [4]: 3.78 µM (active)

CC[n+]1c(/C=C2/C=CN(CCCS(=O)(=O)[O-])c3ccccc32)sc2ccccc21
IC50 [5]: > 55.7 µM (not active)
IC50 (Insulin-degrading enzyme): 12.3 µM (not active)
IC50 [6]: 2.69 µM (active)
IC50 [7]: 2.97 µM (active)

Cc1cc(C)c(S(=O)(=O)Nc2ccc3[nH]c(O)nc3c2)c(C)c1
EC50 [8]: > 79.4 µM (not active)
EC50 [9]: > 79.4 µM (not active)
EC50 [10]: > 79.4 µM (not active)

CCN(CC)c1ccc2oc(=O)c(C)nc2c1
IC50 [11]: 10 µM (active)
IC50 [12]: 12.7 µM (active)
AC50 [13]: > 380 µM (inactive)
EC50 (Protein RecA): 7.63 µM (active)
IC50 (Protein skinhead-1): > 100 µM (inactive)
